{"source": "BindingDB's records for doi:10.7270/Q29C6VXX", "about": "(Burnham Center For Chemical Genomics, 2011)"}
{"molecular_target": "T1, Apoptotic protease-activating factor 1 (Homo sapiens, UniProt O14727)", "T1 sequence (O14727 whole entry)": "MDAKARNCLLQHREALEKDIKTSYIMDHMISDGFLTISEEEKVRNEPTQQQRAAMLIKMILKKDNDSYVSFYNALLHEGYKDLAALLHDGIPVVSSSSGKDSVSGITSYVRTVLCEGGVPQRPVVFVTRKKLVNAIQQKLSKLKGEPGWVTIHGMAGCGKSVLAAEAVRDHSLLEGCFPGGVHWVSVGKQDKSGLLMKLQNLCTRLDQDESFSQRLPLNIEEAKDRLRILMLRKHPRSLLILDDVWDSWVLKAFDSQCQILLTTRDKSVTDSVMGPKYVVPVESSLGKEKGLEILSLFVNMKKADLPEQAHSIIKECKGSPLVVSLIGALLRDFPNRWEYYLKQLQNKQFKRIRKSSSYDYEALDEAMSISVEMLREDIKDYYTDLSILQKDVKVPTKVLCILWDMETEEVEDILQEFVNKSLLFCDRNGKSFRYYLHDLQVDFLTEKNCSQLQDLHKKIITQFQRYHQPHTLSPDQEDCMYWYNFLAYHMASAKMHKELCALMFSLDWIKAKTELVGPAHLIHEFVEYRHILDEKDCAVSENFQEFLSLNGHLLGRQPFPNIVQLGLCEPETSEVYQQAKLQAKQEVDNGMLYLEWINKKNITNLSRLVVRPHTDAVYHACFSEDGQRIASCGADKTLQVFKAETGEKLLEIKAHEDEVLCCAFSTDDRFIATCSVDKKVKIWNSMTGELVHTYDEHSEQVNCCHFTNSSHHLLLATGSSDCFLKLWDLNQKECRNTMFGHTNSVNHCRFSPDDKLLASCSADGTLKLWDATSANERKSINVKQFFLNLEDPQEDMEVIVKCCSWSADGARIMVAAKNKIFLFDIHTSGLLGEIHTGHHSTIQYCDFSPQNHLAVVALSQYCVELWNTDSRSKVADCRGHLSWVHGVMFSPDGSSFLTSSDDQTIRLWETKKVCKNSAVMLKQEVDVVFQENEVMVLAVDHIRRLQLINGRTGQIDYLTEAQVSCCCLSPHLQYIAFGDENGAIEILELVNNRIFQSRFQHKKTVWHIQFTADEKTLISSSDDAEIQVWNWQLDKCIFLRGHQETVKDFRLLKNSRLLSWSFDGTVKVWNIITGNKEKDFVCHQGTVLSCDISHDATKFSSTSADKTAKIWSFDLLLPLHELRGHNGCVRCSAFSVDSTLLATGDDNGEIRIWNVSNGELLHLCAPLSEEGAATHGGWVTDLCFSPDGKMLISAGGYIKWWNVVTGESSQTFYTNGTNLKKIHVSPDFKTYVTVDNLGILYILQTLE", "test": "activation of Apaf-1 mediated apoptosis – fluorescent, uHTS hits, dose response (AID 588554)", "units": {"EC50": "µM"}}
{"smiles": "CCOc1ccc(C(=O)CC=Nc2ccc(S(=O)(=O)NC(=N)N)cc2)cc1", "note": "[2-[4-[[(E)-3-(4-ethoxyphenyl)-3-oxidanylidene-prop-1-enyl]amino]phenyl]sulfonylguanidine]", "EC50": 6.28}
{"smiles": "O=C(NN=CC1C=C(Cl)C=C([N+](=O)[O-])C1=O)NC12CC3CC(CC(C3)C1)C2", "note": "(stereo not drawn) [1-(1-adamantyl)-3-[[(E)-(3-chloro-5-nitro-6-oxo-1-cyclohexa-2,4-dienylidene)methyl]amino]urea]", "EC50": 6.87}
{"smiles": "CSc1ccc(CN=Nc2ccc(S(=O)(=O)Nc3ccccc3C(=O)O)cc2[N+](=O)[O-])cc1", "note": "[MLS002245633]", "EC50": 8.23}
